*1 amine or outer side, *2 acyl side, *3 side chain or, on linkers, in order; H or OH if unused. Where a SMILES comes first, the peptide text is derived from it. [ ]: non-standard residue; d: D form. Trp(1-(1,1-Me2-allyl)) = C=CC(C)(C)n1cc(C[C@H](N)C(=O)O)c2ccccc21; X6 = C=C[C@](C)(CO)n1cc(C[C@H](N[*:1])C(=O)[*:2])c2ccccc21; Tyr(3-NO2) = N[C@@H](Cc1ccc(O)c([N+](=O)[O-])c1)C(=O)O; X7 = CN([C@@H](C[C@@](C)(O)C(=O)O)C(=O)[*:2])[*:1]; X2 = CN([C@@H](C[C@H](CO)C(=O)O)C(=O)[*:2])[*:1]; X4 = C[C@H](C[C@@H](C(=O)[*:2])N(C)[*:1])C(=O)O; X1 = CN([C@@H](C[C@@](C)(O)CO)C(=O)[*:2])[*:1]; X5 = O=CNc1cc(C[C@H](N[*:1])C(=O)[*:2])ccc1O; X3 = CN([C@@H](CC(CO)CO)C(=O)[*:2])[*:1]; Gly(E-crotyl) = C/C=C/C[C@H](N)C(=O)O; NMeMet(O) = CN[C@@H](CCS(C)=O)C(=O)O; NMeL = CN[C@@H](CC(C)C)C(=O)O
Experiments:
[1] = test system: Mycobacterium tuberculosis; test: Antitubercular activity against Mycobacterium tuberculosis H37Rv assessed as reduction in microbial growth by broth dilution method; type: functional
[2] = Cytotoxicity against human HUVEC12 cells assessed as reduction in cell viability after 24 hrs by CCK8 assay; type: cell-based
HepG2 = test: Cytotoxicity against human HepG2 cells assessed as reduction in cell viability after 24 hrs by CCK8 assay; type: functional, cell-based; details: HepG2, 24 h
L02 = test: Cytotoxicity against human LO2 cells assessed as reduction in cell viability after 24 hrs by CCK8 assay; type: cell-based; details: L02, 24 h
HeLa = test: Cytotoxicity against human HeLa cells assessed as reduction in cell viability after 24 hrs by CCK8 assay; type: functional, cell-based
RKO = test: Cytotoxicity against human RKO cells assessed as reduction in cell viability after 24 hrs by CCK8 assay; type: functional, cell-based
A549 = test: Cytotoxicity against human A549 cells assessed as reduction in cell viability after 24 hrs by CCK8 assay; type: functional, cell-based; details: A549, 24 h
MCF7 = test: Cytotoxicity against human MCF7 cells assessed as reduction in cell viability after 24 hrs by CCK8 assay; type: functional, cell-based; details: MCF7, 24 h

Structure (SMILES): C=CC(C)(C)n1cc(C[C@@H]2NC(=O)[C@H](C/C=C/C)NC(=O)[C@H](CC(C)C)N3C(=O)[C@H](C[C@H](C)[C@H]3O)N(C)C(=O)[C@H](C)NC(=O)[C@H](Cc3ccc(O)c([N+](=O)[O-])c3)NC(=O)[C@H](CC(C)C)N(C)C2=O)c2ccccc21
- MIC [1]: 0.0098 µM
- IC50 [2]: 15 µM
- IC50 (HepG2): 3.7 µM
- IC50 (L02): 10 µM
- IC50 (HeLa): 3.1 µM
- IC50 (RKO): 7.5 µM
- IC50 (A549): 4.3 µM
- IC50 (MCF7): 3.1 µM

Structure (SMILES): C=C[C@](C)(CO)n1cc(C[C@@H]2NC(=O)[C@H](C/C=C/C)NC(=O)[C@H](CC(C)C)N3C(=O)[C@H](C[C@@](C)(O)[C@H]3O)N(C)C(=O)[C@H](C)NC(=O)[C@H](Cc3ccc(O)c([N+](=O)[O-])c3)NC(=O)[C@H](CC(C)C)N(C)C2=O)c2ccccc21
- MIC [1]: 1.4 µM
- IC50 [2]: > 50 µM
- IC50 (HepG2): > 50 µM
- IC50 (L02): 22 µM
- IC50 (HeLa): 14 µM
- IC50 (RKO): 22 µM
- IC50 (A549): > 50 µM
- IC50 (MCF7): 27 µM

Structure (SMILES): C=CC(C)(C)n1cc(C[C@@H]2NC(=O)[C@H](C/C=C/C)NC(=O)[C@H](CC(C)C)N3C(=O)[C@H](C[C@H](C)[C@H]3OC)N(C)C(=O)[C@H](C)NC(=O)[C@H](Cc3cccc([N+](=O)[O-])c3)NC(=O)[C@H](CC(C)C)N(C)C2=O)c2ccccc21
- MIC [1]: 1.2 µM

Structure (SMILES): C=C[C@](C)(CO)n1cc(C[C@@H]2NC(=O)[C@H](C/C=C/C)NC(=O)[C@H](CC(C)C)N3C(=O)[C@H](C[C@H](C)[C@H]3O)N(C)C(=O)[C@H](C)NC(=O)[C@H](Cc3ccc(O)c([N+](=O)[O-])c3)NC(=O)[C@H](CC(C)C)N(C)C2=O)c2ccccc21
- MIC [1]: 0.0096 µM
- IC50 [2]: 47 µM
- IC50 (HepG2): > 50 µM
- IC50 (L02): 31 µM
- IC50 (HeLa): 28 µM
- IC50 (RKO): 19 µM
- IC50 (A549): 34 µM
- IC50 (MCF7): 33 µM

Structure (SMILES): C=CC(C)(C)n1cc(C[C@@H]2NC(=O)[C@H](C/C=C/C)NC(=O)[C@H](CC(C)C)N3C(=O)[C@H](C[C@@H](CO)[C@H]3O)N(C)C(=O)[C@H](C)NC(=O)[C@H](Cc3ccc(O)c([N+](=O)[O-])c3)NC(=O)[C@H](CC(C)C)N(C)C2=O)c2ccccc21
- MIC [1]: 1.4 µM
- IC50 [2]: 12 µM
- IC50 (HepG2): 22 µM
- IC50 (L02): 16 µM
- IC50 (HeLa): 7.2 µM
- IC50 (RKO): 7.3 µM
- IC50 (A549): 19 µM
- IC50 (MCF7): 5.6 µM

Structure (SMILES): C=CC(C)(C)n1cc(C[C@@H]2NC(=O)[C@H](C/C=C/C)NC(=O)[C@H](CC(C)C)NC(=O)[C@H](CC[S+](C)[O-])N(C)C(=O)[C@H](C)NC(=O)[C@H](Cc3ccc(O)c([N+](=O)[O-])c3)NC(=O)[C@H](CC(C)C)N(C)C2=O)c2ccccc21 (some centres not stated) (cyclo(A[NMeMet(O)]L[Gly(E-crotyl)][Trp(1-(1,1-Me2-allyl))][NMeL][Tyr(3-NO2)]))
- MIC [1]: 1.4 µM
- IC50 [2]: 28 µM
- IC50 (HepG2): 29 µM
- IC50 (L02): > 50 µM
- IC50 (HeLa): 14 µM
- IC50 (RKO): 37 µM
- IC50 (A549): 25 µM
- IC50 (MCF7): 22 µM

Structure (SMILES): C=CC(C)(C)n1cc(C[C@@H]2NC(=O)[C@H](C/C=C/C)NC(=O)[C@H](CC(C)C)NC(=O)[C@H](C[C@@](C)(O)CO)N(C)C(=O)[C@H](C)NC(=O)[C@H](Cc3ccc(O)c([N+](=O)[O-])c3)NC(=O)[C@H](CC(C)C)N(C)C2=O)c2ccccc21 (cyclo(A[X1]L[Gly(E-crotyl)][Trp(1-(1,1-Me2-allyl))][NMeL][Tyr(3-NO2)]))
- MIC [1]: 2.3 µM
- IC50 [2]: > 50 µM
- IC50 (HepG2): > 50 µM
- IC50 (L02): > 50 µM
- IC50 (HeLa): 49 µM
- IC50 (RKO): > 50 µM
- IC50 (A549): > 50 µM
- IC50 (MCF7): > 50 µM

Structure (SMILES): C=CC(C)(C)n1cc(C[C@@H]2NC(=O)[C@H](C/C=C/C)NC(=O)[C@H](CC(C)C)NC(=O)[C@H](C[C@H](CO)C(=O)O)N(C)C(=O)[C@H](C)NC(=O)[C@H](Cc3ccc(O)c([N+](=O)[O-])c3)NC(=O)[C@H](CC(C)C)N(C)C2=O)c2ccccc21 (cyclo(A[X2]L[Gly(E-crotyl)][Trp(1-(1,1-Me2-allyl))][NMeL][Tyr(3-NO2)]))
- MIC [1]: 9.5 µM
- IC50 [2]: > 50 µM
- IC50 (HepG2): > 50 µM
- IC50 (L02): > 50 µM
- IC50 (HeLa): > 50 µM
- IC50 (RKO): > 50 µM
- IC50 (A549): > 50 µM
- IC50 (MCF7): > 50 µM

Structure (SMILES): C=CC(C)(C)n1cc(C[C@@H]2NC(=O)[C@H](C/C=C/C)NC(=O)[C@H](CC(C)C)NC(=O)[C@H](CC(CO)CO)N(C)C(=O)[C@H](C)NC(=O)[C@H](Cc3ccc(O)c([N+](=O)[O-])c3)NC(=O)[C@H](CC(C)C)N(C)C2=O)c2ccccc21 (cyclo(A[X3]L[Gly(E-crotyl)][Trp(1-(1,1-Me2-allyl))][NMeL][Tyr(3-NO2)]))
- MIC [1]: 1.2 µM
- IC50 [2]: > 50 µM
- IC50 (HepG2): > 50 µM
- IC50 (L02): > 50 µM
- IC50 (HeLa): 17 µM
- IC50 (RKO): 41 µM
- IC50 (A549): > 50 µM
- IC50 (MCF7): 38 µM

Structure (SMILES): C=CC(C)(C)n1cc(C[C@@H]2NC(=O)[C@H](C/C=C/C)NC(=O)[C@H](CC(C)C)NC(=O)[C@H](C[C@@H](C)C(=O)O)N(C)C(=O)[C@H](C)NC(=O)[C@H](Cc3ccc(O)cc3)NC(=O)[C@H](CC(C)C)N(C)C2=O)c2ccccc21 (cyclo(A[X4]L[Gly(E-crotyl)][Trp(1-(1,1-Me2-allyl))][NMeL]Y))
- MIC [1]: 10 µM
- IC50 [2]: > 50 µM
- IC50 (HepG2): > 50 µM
- IC50 (L02): > 50 µM
- IC50 (HeLa): > 50 µM
- IC50 (RKO): > 50 µM
- IC50 (A549): > 50 µM
- IC50 (MCF7): > 50 µM

Structure (SMILES): C=CC(C)(C)n1cc(C[C@@H]2NC(=O)[C@H](C/C=C/C)NC(=O)[C@H](CC(C)C)NC(=O)[C@H](C[C@@H](C)C(=O)O)N(C)C(=O)[C@H](C)NC(=O)[C@H](Cc3ccc(O)c([N+](=O)[O-])c3)NC(=O)[C@H](CC(C)C)N(C)C2=O)c2ccccc21 (cyclo(A[X4]L[Gly(E-crotyl)][Trp(1-(1,1-Me2-allyl))][NMeL][Tyr(3-NO2)]))
- MIC [1]: 1.2 µM
- IC50 [2]: > 50 µM
- IC50 (HepG2): > 50 µM
- IC50 (L02): > 50 µM
- IC50 (HeLa): > 50 µM
- IC50 (RKO): > 50 µM
- IC50 (A549): > 50 µM
- IC50 (MCF7): > 50 µM

Structure (SMILES): C=CC(C)(C)n1cc(C[C@@H]2NC(=O)[C@H](C/C=C/C)NC(=O)[C@H](CC(C)C)NC(=O)[C@H](C[C@@H](C)C(=O)O)N(C)C(=O)[C@H](C)NC(=O)[C@H](Cc3ccc(O)c(NC=O)c3)NC(=O)[C@H](CC(C)C)N(C)C2=O)c2ccccc21 (cyclo(A[X4]L[Gly(E-crotyl)][Trp(1-(1,1-Me2-allyl))][NMeL][X5]))
- MIC [1]: 9.6 µM
- IC50 [2]: > 50 µM
- IC50 (HepG2): > 50 µM
- IC50 (L02): > 50 µM
- IC50 (HeLa): > 50 µM
- IC50 (RKO): > 50 µM
- IC50 (A549): > 50 µM
- IC50 (MCF7): > 50 µM

Structure (SMILES): C=C[C@](C)(CO)n1cc(C[C@@H]2NC(=O)[C@H](C/C=C/C)NC(=O)[C@H](CC(C)C)NC(=O)[C@H](C[C@@H](C)C(=O)O)N(C)C(=O)[C@H](C)NC(=O)[C@H](Cc3ccc(O)c([N+](=O)[O-])c3)NC(=O)[C@H](CC(C)C)N(C)C2=O)c2ccccc21 (cyclo(A[X4]L[Gly(E-crotyl)][X6][NMeL][Tyr(3-NO2)]))
- MIC [1]: 9.5 µM
- IC50 [2]: 48 µM
- IC50 (HepG2): > 50 µM
- IC50 (L02): 49 µM
- IC50 (HeLa): 45 µM
- IC50 (RKO): > 50 µM
- IC50 (A549): 30 µM
- IC50 (MCF7): > 50 µM

Structure (SMILES): C=C[C@](C)(CO)n1cc(C[C@@H]2NC(=O)[C@H](C/C=C/C)NC(=O)[C@H](CC(C)C)NC(=O)[C@H](C[C@@](C)(O)C(=O)O)N(C)C(=O)[C@H](C)NC(=O)[C@H](Cc3ccc(O)c([N+](=O)[O-])c3)NC(=O)[C@H](CC(C)C)N(C)C2=O)c2ccccc21 (cyclo(A[X7]L[Gly(E-crotyl)][X6][NMeL][Tyr(3-NO2)]))
- MIC [1]: 0.24 µM
- IC50 [2]: > 50 µM
- IC50 (HepG2): > 50 µM
- IC50 (L02): > 50 µM
- IC50 (HeLa): > 50 µM
- IC50 (RKO): > 50 µM
- IC50 (A549): > 50 µM
- IC50 (MCF7): > 50 µM

Structure (SMILES): COc1cccc2c1C(=O)c1c(O)c3c(c(O)c1C2=O)C[C@@](O)(C(=O)CO)C[C@@H]3O[C@H]1C[C@H](N)[C@H](O)[C@H](C)O1 [DOXORUBICIN]
- IC50 [2]: 4 µM
- IC50 (HepG2): 0.8 µM
- IC50 (HeLa): 0.5 µM
- IC50 (RKO): 0.3 µM
- IC50 (A549): 0.7 µM
- IC50 (MCF7): 0.4 µM

Structure (SMILES): CO[C@H]1/C=C/O[C@@]2(C)Oc3c(C)c(O)c4c(O)c(c(/C=N/N5CCN(C)CC5)c(O)c4c3C2=O)NC(=O)/C(C)=C\C=C\[C@H](C)[C@H](O)[C@@H](C)[C@@H](O)[C@@H](C)[C@H](OC(C)=O)[C@@H]1C [RIFAMPIN]
- MIC [1]: 0.3 µM

From ChEMBL document CHEMBL4627373, “Antitubercular Ilamycins from Marine-Derived Streptomyces atratus SCSIO ZH16 ΔilaR” (J Nat Prod, 2020)
